According to ChEMBL document CHEMBL1150542, “Enzymatic synthesis and antiviral ativity of 2-deoxy-2-fluoro-ribavirin” (Bioorg Med Chem Lett, 1996):
Active and inactive are the calls of the source.

Tests used:
[1] = system: Human alphaherpesvirus 3; experiment: Compound was tested for antiviral activity against VZV; Not active; type: functional, organism-based
[2] = system: Human immunodeficiency virus 1; experiment: Compound was tested for antiviral activity against HIV-1; Not active; type: functional
[3] = system: Human alphaherpesvirus 2; experiment: Compound was tested for antiviral activity against HSV-2; Not active; type: functional, organism-based
[4] = system: MDCK; experiment: Compound was tested for antiviral activity against influenza A in MDCK cells at concentration of 100 uM; Not active; type: functional, cell-based; settings: Canis lupus familiaris
[5] = system: Human betaherpesvirus 5; experiment: Compound was tested for antiviral activity against HCMV; Not active; type: functional, organism-based
[6] = system: MDCK; experiment: Compound was tested for antiviral activity against influenza B in MDCK cells at concentration of 100 uM; Not active; type: functional, cell-based; settings: Canis lupus familiaris

Measured: Activity

NC(=O)c1ncn(C2O[C@H](CO)C(O)[C@H]2F)n1 (single isomer, unassigned)
inactive: all assays above

NC(=O)c1ncn([C@@H]2O[C@H](CO)C(O)[C@H]2F)n1 (single isomer, unassigned)
inactive: all assays above
